Each structure is given as a SMILES string. Read-outs that look alike come from different tables or passages of the source.

A short description of data set [1]: In vitro microsomal stability, rat. It counts as in vitro ADME. As to conditions: for microsomal stability (in words): rat liver microsomes. On the technique in general: Microsomes from liver hold many membrane-bound enzymes, among them those of drug oxidation.
Data set [2] relates to Isogenic HCT-116 colon cancer cell lines. Kind of data set: cells. The data set is classed as cell-based. As to conditions: Homo sapiens, cell growth.
Method: Cells were seeded in 96-well flat bottom cell culture plates at a density of 2−3×10^3 cells/well with compounds and incubated for 4 days.
In data set [3] the test system is cancer cell lines with wild-type p53 / mutated or deleted p53 (ATCC). As to the kind of experiment: Cell growth assay (WST-8), other cancer cell lines. The data set is classed as cell-based. As to conditions: Homo sapiens.

Regarding `CC(C)(C)C[C@H]1N[C@@H](C(=O)NCCCN2CCCC2)[C@H](c2cccc(Cl)c2F)[C@@]12C(=O)Nc1cc(Cl)ccc12` [MI-519-43], the “% of compound remaining when incubated in rat liver microsomes” value (shortened to “% of compound remaining when incubated”) in data set [1] (Table 17, 0 min) is listed as 100%; in data set [1] (Table 17, 4 min) it was 92.3%; in data set [1] (Table 17, 6 min), 86.1%; in data set [1] (Table 17, 10 min), 70.6%; in data set [1] (Table 17, 15 min), 69.9%; in data set [1] (Table 17, 30 min), 62.5%. Further, in data set [1], the “microsomal stability (in words)” value is recorded as “improved microsomal stability over MI-219”. Further, the IC50 worked out at 4100 ± 500 nM in data set [2] (HCT-116, read-out: HCT-116 (p53-/-) IC50, Table 19A, HCT-116 p53-/-); 900 nM in data set [2] (HCT-116, read-out: HCT-116 (p53 wild-type) IC50, Table 19A, HCT-116 p53 wild-type); 1000 nM in data set [3] (LNCaP, Table 19A, LNCAP cells, p53 wild-type, cell growth, read-out: LNCAP (p53 wild-type) IC50); 3400 nM in data set [3] (PC-3, Table 19A, PC-3 cells, deleted p53, cell growth, read-out: PC-3 (deleted p53) IC50); 900 ± 100 nM in data set [3] (SJSA-1, Table 19A, SJSA-1 cells, p53 wild-type, cell growth, read-out: SJSA-1 (p53 wild-type) IC50).
`CC(C)(C)C[C@H]1N[C@@H](C(=O)NCCCN2CCN(C3CC3)CC2)[C@H](c2cccc(Cl)c2F)[C@@]12C(=O)Nc1cc(Cl)ccc12` [MI-519-48]: the “% of compound remaining when incubated” value in data set [1] (Table 17, 0 min) is reported as 100%; in data set [1] (Table 17, 4 min), 79.8%; in data set [1] (Table 17, 6 min), 64.8%; in data set [1] (Table 17, 10 min) it was 48.5%; in data set [1] (Table 17, 15 min) it was 45.2%; in data set [1] (Table 17, 30 min), 43.7%.
As for `CC(C)(C)C[C@H]1N[C@@H](C(=O)NCCN2CCCC2)[C@H](c2cccc(Cl)c2F)[C@@]12C(=O)Nc1cc(Cl)c(F)cc12` [MI-763], the “% of compound remaining when incubated” value in data set [1] (Table 17, 0 min) is 100%; in data set [1] (Table 17, 4 min) it was 96.8%; in data set [1] (Table 17, 6 min), 97.3%; in data set [1] (Table 17, 10 min), 85.6%; in data set [1] (Table 17, 15 min), 72.1%; in data set [1] (Table 17, 30 min), 61.5%. Moreover, the “microsomal stability (in words)” value in data set [1] is “improved microsomal stability over MI-219”.

For the origin of these results see US9079913B2, “Spiro-oxindole MDM2 antagonists” (The Regents of the University of Michigan, priority 2009, dated 2015).
